Measurements published in PMC9317966, “Structure-function analysis of the AMPK activator SC4 and identification of a potent pan AMPK activator” (Biochemical Journal, 2022).

What was measured:
α1β2γ1 AMPK = system: α1β2γ1 AMPK; parameters: method as in PMID 29657085; settings: α1β2γ1, in solution, mammalian cell-expressed AMPK, cited from earlier work
α2β2γ1 AMPK = system: α2β2γ1 AMPK; parameters: method as in PMID 29657085; settings: α2β2γ1, in solution, mammalian cell-expressed AMPK; cited from earlier work
α1β1γ1 AMPK = system: α1β1γ1 AMPK; parameters: method as in PMID 29657085; settings: α1β1γ1, in solution, mammalian cell-expressed AMPK; cited from earlier work
human GST-AMPK α2β2γ1 = target: T1, human GST-AMPK α2β2γ1 (Homo sapiens, UniProt O43741+P54646); test: Radiolabel SAMS kinase assay, GST-AMPK from HEK293T/17 cells immobilised on glutathione-Sepharose; format: biochemical; settings: 1 µM compound
T1 construct: triply transfected with full-length AMPK α1 or α2 (NH2-terminal GST fusion, pDEST27 vector); full-length AMPK α1 or α2 (NH2-terminal GST fusion, pDEST27 vector), β1 or β2 (COOH-terminal FLAG fusion, pcDNA3.1 vector); FLAG (C); made in house; host or cells: HEK293T/17 cells, transient triple transfection
Description: (§1) We generated a series of compounds to investigate whether modification of the SC4 2-hydroxybiphenyl LHS fragment affects isoform selectivity, some of which (MSG008-MSG011) are presented in Table 1. We also synthesised compound MSG012 (example I-3-54 [32]), which was reported to activate α2β2γ1 with ∼100-fold greater potency compared with α1β1γ1. MSG012 differs from SC4 by substitution of the 2-hydroxyphenyl LHS fragment with 3-cyclohexen-4-yl-1-carboxylic acid, and 2-methylbenzoic acid RHS fragment with 1-hydroxy-N,N-dimethylcyclohexan-4-yl-1-carboxamide. Our initial screen involved measuring the activity of recombinant human GST-AMPK complexes expressed in HEK293T/17 cells and immobilised on glutathione-Sepharose (Supplementary Figure S1). Enzyme activity was measured by radiolabelling the synthetic SAMS peptide substrate in the absence or presence of 1 µM compound. Consistent with our previous characterisation, SC4 activated α1β1γ1, α2β1γ1 and α2β2γ1 >2.3-fold, and weakly activated α1β2γ1 1.3-fold (Figure 1A). […] The γ isoform had little influence on AMPK activation by MSG011 as most γ2 and γ3 complexes were activated >2.2-fold at 1 µM, with α1β2γ2 being the only exception (1.6-fold activation). […] Accordingly, MSG010, MSG011 and MSG012 can be classified as pan AMPK activators.
(§2) Adherent HEK293T/17 cells at ∼50% confluency were triply transfected with full-length AMPK α1 or α2 (NH2-terminal GST fusion, pDEST27 vector), β1 or β2 (COOH-terminal FLAG fusion, pcDNA3.1 vector), and γ1, γ2 or γ3 (NH2-terminal HA fusion, pMT2 vector) in the presence of FuGENE HD transfection reagent (Promega) as per the manufacturers protocol. Cells were harvested 48 hours post-transfection by first gently washing in ice cold phosphate buffered saline (PBS; Sigma–Aldrich), then scraping in ice cold lysis buffer (50 mM TRIS pH 7.5, 150 mM NaCl, 10% (v/v) glycerol, 50 mM NaF, 5 mM sodium pyrophosphate, 1% (v/v) Triton X-100, cOmplete protease inhibitor cocktail). Lysates were clarified by centrifugation (16 000g, 3 min, 4°C), flash frozen in liquid N2 and stored at −80°C until analysis. For radioactive kinase assays, AMPK was immobilised on glutathione Sepharose 4B resin (GE Healthcare) by incubation with lysates for 1.5 h at 4°C. Following centrifugation (1000g, 3 min, 4°C), the resin was washed twice in purification buffer (50 mM HEPES pH 7.4, 150 mM NaCl, 10% (v/v) glycerol, 0.02% (v/v) Tween-20), once in 50 mM HEPES pH 7.4 with 0.02% (v/v) Tween-20, then resuspended to a 50% slurry with 50 mM HEPES pH 7.4 and 10 µl added to the activity assays. For in solution kinase assays, α1β1γ1 AMPK was eluted from glutathione-Sepharose by incubating with purification buffer supplemented with 40 mM reduced glutathione (Sigma–Aldrich).
(§3) AMPK activity was determined by phosphorylation of the SAMS peptide (Purar Chemicals, sequence: NH2-HMRSAMSGLHLVKRR-COOH) in a 25 µl reaction volume containing 100 µM SAMS peptide, 5 mM MgCl2, 200 µM ATP, [γ-^32P]-ATP (PerkinElmer) and assay buffer (50 mM HEPES pH 7.4, 1 mM DTT and 0.02% (v/v) Tween-20) and purified AMPK. Phosphotransferase activity was conducted at 30°C for 10 min and reactions were quenched by spotting 15 µl onto phosphocellulose ion-exchange chromatography paper (made in-house), followed by repeated washes in 1% H3PO4 (Merck Millipore). Ultima Gold liquid scintillation fluid (5 ml; PerkinElmer) was added to vials containing dried phosphocellulose papers, and the level of ^32P-transfer to the SAMS peptide was determined using a Tri-Carb 2900TR liquid scintillation counter (PerkinElmer).

human GST-AMPK α1β1γ1 = target: T2, human GST-AMPK α1β1γ1 (Homo sapiens, UniProt Q13131+Q9Y478); test: as above; format: biochemical; settings: 1 µM compound
T2 construct: triply transfected with full-length AMPK α1 or α2 (NH2-terminal GST fusion, pDEST27 vector); full-length AMPK α1 or α2 (NH2-terminal GST fusion, pDEST27 vector), β1 or β2 (COOH-terminal FLAG fusion, pcDNA3.1 vector); FLAG (C); made in house; host or cells: HEK293T/17 cells, transient triple transfection
Description: as §1, §2, §3

human GST-AMPK α2β1γ1 = target: T3, human GST-AMPK α2β1γ1 (Homo sapiens, UniProt P54646+Q9Y478); test: as above; format: biochemical; settings: 1 µM compound
T3 construct: triply transfected with full-length AMPK α1 or α2 (NH2-terminal GST fusion, pDEST27 vector); full-length AMPK α1 or α2 (NH2-terminal GST fusion, pDEST27 vector), β1 or β2 (COOH-terminal FLAG fusion, pcDNA3.1 vector); FLAG (C); made in house; host or cells: HEK293T/17 cells, transient triple transfection
Description: as §1, §2, §3

human GST-AMPK α1β2γ1 = target: T4, human GST-AMPK α1β2γ1 (Homo sapiens, UniProt O43741+Q13131); test: as above; format: biochemical; settings: 1 µM compound
T4 construct: triply transfected with full-length AMPK α1 or α2 (NH2-terminal GST fusion, pDEST27 vector); full-length AMPK α1 or α2 (NH2-terminal GST fusion, pDEST27 vector), β1 or β2 (COOH-terminal FLAG fusion, pcDNA3.1 vector); FLAG (C); made in house; host or cells: HEK293T/17 cells, transient triple transfection
Description: as §1, §2, §3

[1] = system: AMPK β1-Ser108 exchanged for Ala; parameters: method as in PMID 24352254, PMID 29657085; settings: cited from earlier work

T4 sequence (Q13131 whole entry, the tested form may be a part): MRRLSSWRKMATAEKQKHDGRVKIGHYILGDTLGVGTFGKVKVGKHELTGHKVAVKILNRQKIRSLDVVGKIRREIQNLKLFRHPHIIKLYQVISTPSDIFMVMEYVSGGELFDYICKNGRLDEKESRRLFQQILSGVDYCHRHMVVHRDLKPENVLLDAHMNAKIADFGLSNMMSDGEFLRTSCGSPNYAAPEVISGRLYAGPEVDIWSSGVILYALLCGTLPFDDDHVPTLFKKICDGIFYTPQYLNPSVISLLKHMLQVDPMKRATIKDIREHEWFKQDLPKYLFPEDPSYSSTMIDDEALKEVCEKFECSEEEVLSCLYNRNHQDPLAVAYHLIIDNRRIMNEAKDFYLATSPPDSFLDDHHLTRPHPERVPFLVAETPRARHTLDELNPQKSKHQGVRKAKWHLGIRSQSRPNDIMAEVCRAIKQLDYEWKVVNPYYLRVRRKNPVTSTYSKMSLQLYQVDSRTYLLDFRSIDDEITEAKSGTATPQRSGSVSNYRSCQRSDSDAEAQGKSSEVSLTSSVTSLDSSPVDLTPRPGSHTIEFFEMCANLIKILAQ
T4 sequence (O43741 whole entry, the tested form may be a part): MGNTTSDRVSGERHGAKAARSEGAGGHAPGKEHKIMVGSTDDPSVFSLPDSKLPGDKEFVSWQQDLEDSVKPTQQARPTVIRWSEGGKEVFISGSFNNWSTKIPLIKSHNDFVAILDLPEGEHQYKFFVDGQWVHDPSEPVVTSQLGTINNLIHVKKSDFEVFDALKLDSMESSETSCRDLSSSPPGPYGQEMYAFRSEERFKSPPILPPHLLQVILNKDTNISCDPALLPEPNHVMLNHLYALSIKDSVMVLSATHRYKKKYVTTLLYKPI
T4 sequence (P54619 whole entry partner, the tested form may be a part): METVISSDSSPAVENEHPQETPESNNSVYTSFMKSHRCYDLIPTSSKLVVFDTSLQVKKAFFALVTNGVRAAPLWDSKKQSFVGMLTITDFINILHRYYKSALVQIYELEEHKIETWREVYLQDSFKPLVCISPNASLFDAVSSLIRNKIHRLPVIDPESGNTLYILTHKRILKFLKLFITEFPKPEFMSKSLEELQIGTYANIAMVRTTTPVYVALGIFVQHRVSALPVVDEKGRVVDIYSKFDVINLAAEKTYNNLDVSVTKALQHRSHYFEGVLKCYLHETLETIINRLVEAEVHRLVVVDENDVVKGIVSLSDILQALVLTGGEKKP
T2 sequence (Q13131 whole entry, the tested form may be a part): as the sequence (Q13131 whole entry, the tested form may be a part) above
T2 sequence (Q9Y478 whole entry, the tested form may be a part): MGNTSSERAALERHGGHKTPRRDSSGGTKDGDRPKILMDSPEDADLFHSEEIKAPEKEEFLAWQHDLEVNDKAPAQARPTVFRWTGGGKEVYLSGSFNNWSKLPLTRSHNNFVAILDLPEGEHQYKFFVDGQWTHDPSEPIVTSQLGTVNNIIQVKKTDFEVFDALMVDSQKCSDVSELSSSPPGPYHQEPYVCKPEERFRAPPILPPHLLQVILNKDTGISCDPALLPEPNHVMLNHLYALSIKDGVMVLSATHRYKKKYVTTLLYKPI
T2 sequence (P54619 whole entry partner, the tested form may be a part): as the sequence (P54619 whole entry partner, the tested form may be a part) above
T3 sequence (P54646 whole entry, the tested form may be a part): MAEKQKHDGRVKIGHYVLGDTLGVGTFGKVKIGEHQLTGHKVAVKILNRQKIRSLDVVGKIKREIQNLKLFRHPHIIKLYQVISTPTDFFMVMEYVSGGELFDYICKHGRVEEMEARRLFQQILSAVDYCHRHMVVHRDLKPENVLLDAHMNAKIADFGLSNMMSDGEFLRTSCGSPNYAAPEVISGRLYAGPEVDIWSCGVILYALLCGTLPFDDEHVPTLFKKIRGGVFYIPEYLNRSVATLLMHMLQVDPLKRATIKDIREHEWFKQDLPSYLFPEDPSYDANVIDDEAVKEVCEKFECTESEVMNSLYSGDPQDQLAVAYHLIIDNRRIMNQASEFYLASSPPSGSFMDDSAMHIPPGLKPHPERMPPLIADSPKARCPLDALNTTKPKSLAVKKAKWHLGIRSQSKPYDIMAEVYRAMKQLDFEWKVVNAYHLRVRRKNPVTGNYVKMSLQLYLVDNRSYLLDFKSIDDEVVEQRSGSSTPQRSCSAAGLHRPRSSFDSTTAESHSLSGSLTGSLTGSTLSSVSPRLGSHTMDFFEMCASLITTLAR
T3 sequence (Q9Y478 whole entry, the tested form may be a part): as the sequence (Q9Y478 whole entry, the tested form may be a part) above
T3 sequence (P54619 whole entry partner, the tested form may be a part): as the sequence (P54619 whole entry partner, the tested form may be a part) above
T1 sequence (P54646 whole entry, the tested form may be a part): as the sequence (P54646 whole entry, the tested form may be a part) above
T1 sequence (O43741 whole entry, the tested form may be a part): as the sequence (O43741 whole entry, the tested form may be a part) above
T1 sequence (P54619 whole entry partner, the tested form may be a part): as the sequence (P54619 whole entry partner, the tested form may be a part) above

**Q.** Which EC50 (α1β2γ1 AMPK; R2 for curve fit = 0.773) does the source give for Cc1ccc(Oc2nc3nc(-c4ccc(-c5ccccc5O)cc4)c(Cl)cc3[nH]2)cc1C(=O)O [SC4] here?
**A.** Its EC50 is 28.6 nM.

**Q.** And the Max. fold activation (α1β2γ1 AMPK)?
**A.** Its Max. fold activation is 1.4 fold.

**Q.** What about the EC50 (α2β2γ1 AMPK) of the same compound?
**A.** Its EC50 is 17.2 nM.

**Q.** What about the Max. fold activation (α2β2γ1 AMPK) of the same compound?
**A.** Its Max. fold activation is 2.5 fold.

**Q.** What about the EC50 (α1β1γ1 AMPK) of the same compound?
**A.** Its EC50 is 5.1 nM.

**Q.** And the Max. fold activation (α1β1γ1 AMPK)?
**A.** Its Max. fold activation is 2.9 fold.

**Q.** And the “fold AMPK activation relative to vehicle” value (human GST-AMPK α2β2γ1)?
**A.** The value was > 2.3 fold.

**Q.** And the “fold AMPK activation relative to vehicle” value (human GST-AMPK α1β1γ1)?
**A.** Its value is > 2.3 fold.

**Q.** And the “fold AMPK activation relative to vehicle” value (human GST-AMPK α2β1γ1)?
**A.** The value was > 2.3 fold.

**Q.** What about the “fold AMPK activation relative to vehicle” value (human GST-AMPK α1β2γ1) of the same compound?
**A.** The value was 1.3 fold.

**Q.** What about the “reduction of activating potency on loss of β1-Ser108 phosphorylation via exchange for Ala” value [1] of the same compound?
**A.** The value was ~4 fold.
